Tests used:
[1] = peptidic ligands; cited from earlier work
[2] = test system: endothelin‐converting enzyme 2 (ECE2); conditions: endosomal protease that functions at acidic pH; cited from earlier work
Source text: Indeed, deltorphin II is a naturally occurring opioid peptide ^32 and TIPP is an opioid peptide analogue. ^33 On the other hand, SNC‐80 ^34 and SB235863 ^35 are synthetic, non‐peptide ligands.

[3] = test system: Flag‐DOPr; experiment: DOPr recycling after recovery from agonist‐induced internalization in primary cortical neuron cultures; type: cell-based, Murine; conditions: for Intracellular immunoreactivity after 60 min recovery vs immediately after treatment / Surface labelling after recovery: 10 µmol/L; for Intracellular immunoreactivity after 60 min recovery vs immediately after treatment: then 60 min recovery in absence of ligand, permeabilized neurons; for Effect of ECE2 inhibitor 6634449 on redistribution of internalized receptors during recovery: agonist 10 µmol/L, 6634449 20 μmol/L during 60 min recovery; for Effect of ECE2 inhibitor 6634449 on redistribution of internalized receptors during recovery / Surface labelling after recovery: 60 min; for Surface labelling after recovery: then 60 min recovery, non‐permeabilized neurons
Procedure: (§1) Primary neuronal cultures were prepared from rat post‐natal prefrontal cortex (P0‐P2) as previously described. ^19 Briefly, three cultures were independently prepared from 8 to 12 pups each. Pups were cryo‐anaesthetized, and brains were removed and transferred into ice‐cold dissociation solution (NaS0_4 90 mmol/L; K2SO4 30 mmol/L; MgCl2 5.8 mmol/L; CaCl20.25 mmol/L; HEPES 10 mmol/L; glucose 20 mmol/L; pH 7.4). Following dissection, the frontal cortex was digested in papain solution (20 U/mL; 40 minutes at 37°C), and the product passed through Pasteur pipettes of progressively decreasing diameter for mechanical dissociation. The suspension obtained was centrifuged, and cells were then resuspended and diluted to a density of 2.5 million/mL, before plating onto glass coverslips pre‐coated with collagen/poly l‐lysine (each at 0.1 mg/mL). Culture proceeded in supplemented Neurocell medium (B27 4%; 100 U/mL penicillin‐streptomycin; GlutaMAX 2%; FBS 10%) for 24 hours. Coverslips were then transferred to a six‐well plate containing 2 mL of Neurocell medium/well and transfected with Flag‐DOPr (8 µg/well), using a calcium phosphate transfection protocol previously. ^19 Murine DORs tagged with the Flag epitope at the N terminus were a generous gift from Dr M. von Zastrow (University of California at San Francisco, San Francisco, CA).
Immunolabelling of surface receptors for quantification of trafficking was performed as previously described. ^19 Briefly, primary cultures expressing Flag‐DOPrs were incubated at 37°C with Neurocell medium containing Ca^2+‐dependent mouse anti‐Flag M1 antibody (1:100; Sigma). After 30 minutes incubation with the antibody, vehicle (0.05% DMSO in Neurocell) or agonist (TIPP, deltorphin II; SNC‐80; SB235863; 10 μmol/L) was added to the medium for 60 minutes. At the end of this period, cultured neurons were washed at 37°C once in calcium‐free PBS and then in PBS in order to remove treatment agonist as well as antibody bound to receptors that may have remained at the membrane after agonist exposure. For visualization of internalized receptors, cultures were immediately fixed with 4% PFA, permeabilized with PBS/0.1% Triton (20 minutes at room temperature (RT)), blocked with PBS/BSA 1% (10 minutes at RT) and incubated with secondary antimouse Alexa 488‐conjugated donkey antibody (1:1000; Invitrogen, A21202). Alternatively, cultured neurons were allowed to recover for 60 minutes in the absence of ligand before a second round of calcium‐free PBS wash was completed before fixation, permeabilization and incubation with secondary antibody. The latter procedure allowed to remove antibody bound to Flag‐DOPrs that translocated to the surface during recovery ensuring the exclusive labelling of receptors that were retained intracellularly. ^26 Another set of neurons was similarly treated with agonist or vehicle and then allowed to recover for 60 minutes following which they were fixed and incubated with secondary antibody without permeabilization, so as to exclusively reveal Flag‐DOPrs that reappeared at the surface during recovery from internalization; measures of surface labelling were normalized to intracellular labelling produced during internalization. Recycling was thus established by taking two independent measures: (a) cytoplasmic labelling density lost during recovery from treatment and (b) gain in surface labelling density when neurons were allowed to recover from agonist‐induced internalization. In experiments in which 6634449 was introduced in the medium during recovery, the concentration used was 20 μmol/L.
(§2) Cytoplasmic and surface labelling densities were quantified with ImageJ using a previously described method, ^27 with small modifications. ^16 In particular, total cytoplasmic labelling density was obtained by measuring fluorescence intensity within the region confined between the external and nuclear perimeters, and dividing this value by the corresponding area. […]

[4] = test system: Flag‐DOPr; experiment: Agonist‐induced internalization of Flag‐DOPrs in primary cortical neuron cultures; type: cell-based, Murine; conditions: 10 µmol/L, 60 min; rat primary cortical neurons transfected with Flag‐DOPr; three independent experiments
Procedure: as §1
Immunolabelling of surface receptors for quantification of trafficking was performed as previously described. ^19 Briefly, primary cultures expressing Flag‐DOPrs were incubated at 37°C with Neurocell medium containing Ca^2+‐dependent mouse anti‐Flag M1 antibody (1:100; Sigma). […]
as §2

Molecule	Blood‐brain barrier penetration [1]	Substrate of ECE2 [2]	Intracellular immunoreactivity after 60 min recovery vs immediately after treatment [3]	Effect of ECE2 inhibitor 6634449 on redistribution of internalized receptors during recovery [3]	Sequestration (intracellular labelling density) [4]	Surface labelling after recovery [3]
deltorphin II	poor blood‐brain barrier penetration	one of the ECE2 substrates	significantly reduced	remain trapped in the cytosol	significantly higher	
C=CCN1C[C@H](C)N([C@H](c2ccc(C(=O)N(CC)CC)cc2)c2cccc(OC)c2)C[C@H]1C [SNC‐80, (+)‐4‐[(αR)‐α‐((2S,5R)‐4‐allyl‐2,5‐dimethyl‐1‐piperazinyl)‐3‐methoxybenzyl]‐N,N‐diethylbenzamide]			not different from the one observed immediately after the end of treatment	without effect	significantly higher	less
CCC(C)COC(=O)c1[nH]c2c(c1C)CC1C3Cc4ccc(OC)c5c4C1(CCN3C)C2O5.Cl (stereo not drawn) [SB235863, [8R‐(4bS*,8aα,8aβ,12bβ)]7,10‐dimethyl‐1‐methoxy‐11‐(2‐ethylpropyl)oxycarbonyl 5,6,7,8,12,12b‐hexahydro‐(9H)‐4,8‐methanobenzofuro[3,2‐e]pyrrolo[2,3‐g]isoquinoline hydrochloride]			not different from the one observed immediately after the end of treatment	without effect	low‐internalizing	less

Source: paper PMC7214178, “Ligand‐specific recycling profiles determine distinct potential for chronic analgesic tolerance of delta‐opioid receptor (DOPr) agonists” (Journal of Cellular and Molecular Medicine, 2020)
